Assay results as given in PubChem BioAssay (NCI).
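48-hour exposure; five concentrations; linearly interpolated endpoints. Abbreviation: GI50, concentration required for 50% inhibition of growth. TGI marks complete inhibition of growth.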

Legend:
Experiment in all cases: growth of human tumour cells (NCI), 48 h; in the data active means GI50 below about 0.43 µM; inactive means the rest
U251 CNS = tested on: U251 CNS
EKVX NSCLC = tested on: EKVX NSCLC
BT-549 breast = tested on: BT-549 breast
HCC-2998 colon = tested on: HCC-2998 colon
HCT-15 colon = tested on: HCT-15 colon
LOX IMVI melanoma = tested on: LOX IMVI melanoma
SK-MEL-5 melanoma = tested on: SK-MEL-5 melanoma
SW-620 colon = tested on: SW-620 colon
MDA-MB-435 = tested on: MDA-MB-435
OVCAR-3 ovarian = tested on: OVCAR-3 ovarian
UACC-257 melanoma = tested on: UACC-257 melanoma
IGROV1 ovarian = tested on: IGROV1 ovarian
HOP-92 NSCLC = tested on: HOP-92 NSCLC
MALME-3M melanoma = tested on: MALME-3M melanoma
TK-10 renal = tested on: TK-10 renal
NCI-H226 lung = tested on: NCI-H226 lung
HL-60(TB) leukemia = tested on: HL-60(TB) leukemia
SF-295 CNS = tested on: SF-295 CNS
M14 melanoma = tested on: M14 melanoma
HT29 colon = tested on: HT29 colon
NCI-H522 lung = tested on: NCI-H522 lung
NCI-H23 lung = tested on: NCI-H23 lung
SNB-75 CNS = tested on: SNB-75 CNS
KM12 colon = tested on: KM12 colon
OVCAR-5 ovarian = tested on: OVCAR-5 ovarian
SK-MEL-28 melanoma = tested on: SK-MEL-28 melanoma
K-562 leukemia = tested on: K-562 leukemia
UACC-62 melanoma = tested on: UACC-62 melanoma
786-0 renal = tested on: 786-0 renal
A549 NSCLC = tested on: A549 NSCLC
ACHN renal = tested on: ACHN renal
SK-OV-3 ovarian = tested on: SK-OV-3 ovarian
SF-539 CNS = tested on: SF-539 CNS
SK-MEL-2 melanoma = tested on: SK-MEL-2 melanoma
HCT-116 colon = tested on: HCT-116 colon
UO-31 renal = tested on: UO-31 renal
PC-3 prostate = tested on: PC-3 prostate
NCI-H460 lung = tested on: NCI-H460 lung
T-47D breast = tested on: T-47D breast
SNB-19 CNS = tested on: SNB-19 CNS
MDA-MB-231 breast = tested on: MDA-MB-231 breast
CAKI-1 renal = tested on: CAKI-1 renal
SR leukemia = tested on: SR leukemia
OVCAR-4 ovarian = tested on: OVCAR-4 ovarian
DU-145 prostate = tested on: DU-145 prostate
CCRF-CEM leukemia = tested on: CCRF-CEM leukemia
HOP-62 NSCLC = tested on: HOP-62 NSCLC
COLO 205 colon = tested on: COLO 205 colon
NCI/ADR-RES ovarian = tested on: NCI/ADR-RES ovarian
SN12C renal = tested on: SN12C renal
MCF7 breast = tested on: MCF7 breast
RPMI-8226 leukemia = tested on: RPMI-8226 leukemia
A498 renal = tested on: A498 renal
HS 578T breast = tested on: HS 578T breast
SF-268 CNS = tested on: SF-268 CNS
RXF 393 renal = tested on: RXF 393 renal
MOLT-4 leukemia = tested on: MOLT-4 leukemia
OVCAR-8 ovarian = tested on: OVCAR-8 ovarian

O=C(COc1ccc(/C=C2\Oc3ccccc3C2=O)cc1)Nc1nc2c(s1)CCCC2
0.609 µM: TGI (SNB-75 CNS)
2.44 µM: TGI (SR leukemia)
27.5 µM: TGI (KM12 colon)
1.4 µM: TGI (SF-539 CNS)
> 39.4 µM: TGI (HT29 colon)
50.2 µM: TGI (SK-MEL-2 melanoma)
7.78 µM: TGI (HS 578T breast)
52.3 µM: TGI (HCC-2998 colon)
> 59.1 µM: TGI (NCI/ADR-RES ovarian)
31.7 µM: TGI (786-0 renal)
> 57.5 µM: TGI (SK-MEL-5 melanoma)
0.406 µM: TGI (NCI-H522 lung)
> 68.7 µM: TGI (SK-MEL-28 melanoma)
active: GI50 (LOX IMVI melanoma) 0.0175 µM | GI50 (UACC-257 melanoma) 0.0449 µM | GI50 (IGROV1 ovarian) 0.0164 µM | GI50 (HOP-92 NSCLC) 0.212 µM | GI50 (HL-60(TB) leukemia) 0.424 µM | GI50 (NCI-H522 lung) 0.165 µM | GI50 (SNB-75 CNS) 0.221 µM | GI50 (KM12 colon) 0.403 µM | GI50 (DU-145 prostate) 0.417 µM | GI50 (CCRF-CEM leukemia) 0.148 µM | GI50 (RPMI-8226 leukemia) 0.261 µM
43.9 µM: TGI (SF-295 CNS)
> 100 µM: TGI (U251 CNS) | TGI (EKVX NSCLC) | TGI (HCT-15 colon) | TGI (SW-620 colon) | TGI (MDA-MB-435) | TGI (M14 melanoma) | TGI (NCI-H23 lung) | TGI (OVCAR-5 ovarian) | TGI (K-562 leukemia) | TGI (UACC-62 melanoma) | TGI (ACHN renal) | TGI (SK-OV-3 ovarian) | TGI (HCT-116 colon) | TGI (PC-3 prostate) | TGI (NCI-H460 lung) | TGI (T-47D breast) | TGI (SNB-19 CNS) | TGI (OVCAR-4 ovarian) | TGI (COLO 205 colon) | TGI (MCF7 breast)
0.835 µM: TGI (UACC-257 melanoma)
0.309 µM: TGI (CCRF-CEM leukemia)
0.0317 µM: TGI (LOX IMVI melanoma)
97.9 µM: TGI (HOP-62 NSCLC)
8.28 µM: TGI (CAKI-1 renal)
> 87.6 µM: TGI (TK-10 renal)
98.2 µM: TGI (A498 renal)
1.12 µM: TGI (RPMI-8226 leukemia)
> 78.5 µM: TGI (MALME-3M melanoma)
> 92 µM: TGI (SN12C renal)
2.53 µM: TGI (HOP-92 NSCLC)
33 µM: TGI (A549 NSCLC)
1.31 µM: TGI (HL-60(TB) leukemia)
25.5 µM: TGI (OVCAR-3 ovarian)
inactive: GI50 (U251 CNS) 2.29 µM | GI50 (EKVX NSCLC) 10.7 µM | GI50 (BT-549 breast) 4.44 µM | GI50 (HCC-2998 colon) 16 µM | GI50 (HCT-15 colon) 25.1 µM | GI50 (SK-MEL-5 melanoma) 17.4 µM | GI50 (SW-620 colon) 4.07 µM | GI50 (MDA-MB-435) 3.98 µM | GI50 (OVCAR-3 ovarian) 1.83 µM | GI50 (MALME-3M melanoma) 1.25 µM | GI50 (TK-10 renal) 26.2 µM | GI50 (NCI-H226 lung) 8.55 µM | GI50 (SF-295 CNS) 10.1 µM | GI50 (M14 melanoma) 16.1 µM | GI50 (HT29 colon) 3.21 µM | GI50 (NCI-H23 lung) 11.9 µM | GI50 (OVCAR-5 ovarian) 51.2 µM | GI50 (SK-MEL-28 melanoma) 27.8 µM | GI50 (K-562 leukemia) 18.8 µM | GI50 (UACC-62 melanoma) 23.2 µM | GI50 (786-0 renal) 0.818 µM | GI50 (A549 NSCLC) 3.09 µM | GI50 (ACHN renal) 17.4 µM | GI50 (SK-OV-3 ovarian) 50.2 µM | GI50 (SF-539 CNS) 0.622 µM | GI50 (SK-MEL-2 melanoma) 4.87 µM | GI50 (HCT-116 colon) 9.94 µM | GI50 (UO-31 renal) 1.87 µM | GI50 (PC-3 prostate) 16.8 µM | GI50 (NCI-H460 lung) 30.3 µM | GI50 (T-47D breast) 48.4 µM | GI50 (SNB-19 CNS) 46.9 µM | GI50 (MDA-MB-231 breast) 0.709 µM | GI50 (CAKI-1 renal) 0.801 µM | GI50 (SR leukemia) 0.59 µM | GI50 (OVCAR-4 ovarian) 13.1 µM | GI50 (HOP-62 NSCLC) 22.5 µM | GI50 (COLO 205 colon) > 73.2 µM | GI50 (NCI/ADR-RES ovarian) 2.19 µM | GI50 (SN12C renal) 4.64 µM | GI50 (MCF7 breast) 15.8 µM | GI50 (A498 renal) 30.6 µM
0.0361 µM: TGI (IGROV1 ovarian)
27.4 µM: TGI (DU-145 prostate)
42 µM: TGI (NCI-H226 lung)
> 49.8 µM: TGI (BT-549 breast)
6.38 µM: TGI (MDA-MB-231 breast)
> 49.5 µM: TGI (UO-31 renal)

C[C@@H]1CC[C@H]2C(C(O)CCCCC(O)C3=C(C(F)(F)F)O[C@@H]4O[C@@]5(C)CC[C@H]6[C@H](C)CC[C@@H]3[C@@]46OO5)=C(C(F)(F)F)O[C@@H]3O[C@@]4(C)CC[C@@H]1[C@]32OO4 (stereo partly specified)
inactive: GI50 (U251 CNS) 19.8 µM | GI50 (EKVX NSCLC) 31.9 µM | GI50 (BT-549 breast) 80.5 µM | GI50 (HCT-15 colon) 9.79 µM | GI50 (LOX IMVI melanoma) 3.12 µM | GI50 (SK-MEL-5 melanoma) 24.7 µM | GI50 (SW-620 colon) 5.64 µM | GI50 (MDA-MB-435) 10.5 µM | GI50 (OVCAR-3 ovarian) 7.26 µM | GI50 (UACC-257 melanoma) 14.9 µM | GI50 (IGROV1 ovarian) 15.6 µM | GI50 (HOP-92 NSCLC) 11.2 µM | GI50 (SF-268 CNS) 19.5 µM | GI50 (MALME-3M melanoma) 44.7 µM | GI50 (TK-10 renal) > 100 µM | GI50 (NCI-H226 lung) 33.6 µM | GI50 (HL-60(TB) leukemia) 6.44 µM | GI50 (SF-295 CNS) 53.7 µM | GI50 (HT29 colon) 13.6 µM | GI50 (NCI-H522 lung) 26.6 µM | GI50 (RXF 393 renal) 9.06 µM | GI50 (SNB-75 CNS) 42.4 µM | GI50 (KM12 colon) 4.71 µM | GI50 (MOLT-4 leukemia) 6.35 µM | GI50 (SK-MEL-28 melanoma) 86.7 µM | GI50 (K-562 leukemia) 16.2 µM | GI50 (UACC-62 melanoma) 8.13 µM | GI50 (A549 NSCLC) 8.87 µM | GI50 (ACHN renal) 13.9 µM | GI50 (SK-OV-3 ovarian) > 100 µM | GI50 (SF-539 CNS) 90.7 µM | GI50 (SK-MEL-2 melanoma) > 100 µM | GI50 (HCT-116 colon) 7.17 µM | GI50 (UO-31 renal) 10.2 µM | GI50 (PC-3 prostate) 3.96 µM | GI50 (NCI-H460 lung) 15.3 µM | GI50 (T-47D breast) 2.52 µM | GI50 (SNB-19 CNS) > 100 µM | GI50 (MDA-MB-231 breast) 16.2 µM | GI50 (CAKI-1 renal) 5.72 µM | GI50 (SR leukemia) 1.91 µM | GI50 (OVCAR-4 ovarian) 28.5 µM | GI50 (DU-145 prostate) 99.9 µM | GI50 (CCRF-CEM leukemia) 14.3 µM | GI50 (HOP-62 NSCLC) 36.9 µM | GI50 (COLO 205 colon) 8.04 µM | GI50 (SN12C renal) 21 µM | GI50 (MCF7 breast) 5.01 µM | GI50 (OVCAR-8 ovarian) 11.3 µM | GI50 (RPMI-8226 leukemia) 5.06 µM | GI50 (A498 renal) 45.6 µM | GI50 (HS 578T breast) 37.8 µM
> 100 µM: TGI (U251 CNS) | TGI (EKVX NSCLC) | TGI (BT-549 breast) | TGI (HCT-15 colon) | TGI (SK-MEL-5 melanoma) | TGI (SW-620 colon) | TGI (MDA-MB-435) | TGI (OVCAR-3 ovarian) | TGI (UACC-257 melanoma) | TGI (IGROV1 ovarian) | TGI (HOP-92 NSCLC) | TGI (SF-268 CNS) | TGI (MALME-3M melanoma) | TGI (TK-10 renal) | TGI (NCI-H226 lung) | TGI (HL-60(TB) leukemia) | TGI (SF-295 CNS) | TGI (HT29 colon) | TGI (NCI-H522 lung) | TGI (RXF 393 renal) | TGI (SNB-75 CNS) | TGI (KM12 colon) | TGI (MOLT-4 leukemia) | TGI (SK-MEL-28 melanoma) | TGI (K-562 leukemia) | TGI (UACC-62 melanoma) | TGI (A549 NSCLC) | TGI (ACHN renal) | TGI (SK-OV-3 ovarian) | TGI (SF-539 CNS) | TGI (SK-MEL-2 melanoma) | TGI (HCT-116 colon) | TGI (UO-31 renal) | TGI (PC-3 prostate) | TGI (NCI-H460 lung) | TGI (SNB-19 CNS) | TGI (MDA-MB-231 breast) | TGI (CAKI-1 renal) | TGI (OVCAR-4 ovarian) | TGI (DU-145 prostate) | TGI (CCRF-CEM leukemia) | TGI (HOP-62 NSCLC) | TGI (SN12C renal) | TGI (MCF7 breast) | TGI (OVCAR-8 ovarian) | TGI (RPMI-8226 leukemia) | TGI (A498 renal) | TGI (HS 578T breast)
29.4 µM: TGI (COLO 205 colon)
11.8 µM: TGI (LOX IMVI melanoma)
6.04 µM: TGI (SR leukemia)
9.02 µM: TGI (T-47D breast)
